Data reported in paper PMC6026317, “Molecular elements in FGF19 and FGF21 defining KLB/FGFR activity and specificity” (Molecular Metabolism, 2018).

Key:
293/KLB cells = experiment: Agonist pERK AlphaLISA assay in 293/KLB cells; format: cell-based, human; details: 10 min at 37° C, n = 3
Experimental: (§1) 293T HEK cells expressing KLB (or KL) or Hep3B cells were plated to 5–6 x 10^4 cells/well density in 96-well cell culture plate coated with poly-D-Lysine (Corning). The cells were serum starved for four hours in 0.1% BSA fraction V (ThermoFisher) containing media prior to treatment with protein and/or an antagonist peptide at the mentioned concentrations for 10 min at 37° C. For the antagonist assays, a chosen fixed dose within the range of 0.8–30 nM (depending on the cell type) of FGF21 or FGF19 stimulant was added to all the wells. BaF3 cells expressing human KLB/FGFR1c or human KLB/FGFR4-1c chimera were seeded at 5 × 10^5 cells/well density in 96-well cell culture plate and serum-starved overnight. FGF21/19 analogs were diluted in 0.02% Tween-20 containing RPMI1640 medium and the cells were treated for 15 min at 37° C. Following the respective cell treatments, the cells were lysed (with lysis buffer provided in the kit) for 10 min at room temperature on a shaker and the lysate was mixed with reaction mixture (consisting of reaction buffer, activation buffer, acceptor and donor beads provided in the kit). Phosphorylated ERK1/2 (pERK) levels were subsequently recorded by EnSpire Alpha or Envision Multilabel plate reader (Perkin Elmer). The cell assays corresponding to 293/KLB or Hep3B cells were carried out with AlphaLISA SureFire Ultra pERK1/2 (Thr 202/Tyr204) kit (Perkin Elmer), and BaF3 cells were done using AlphaScreen pERK1/2 (Thr202/Tyr204) kit (Perkin Elmer).
All cellular phosphorylation data were analyzed using 3-parameter non-linear regression curve in GraphPad Prism 7. Graphs are represented as relative maximal (100%) response of the positive control. All other test analog signals were adjusted accordingly as % values. […] Each peptide and protein analog was tested in triplicates in three independent experiments (n = 3), and normalized graphs plotted are expressed as mean ± SD unless otherwise noted.

human FGFR1/KLB = experiment: Agonist pERK AlphaScreen assay in BaF3 cells, FGFR1/KLB; format: cell-based; details: BaF3 cells co-expressing KLB and FGFR1; 15 min at 37° C; n = 3
Source text: (§2) For generating receptor specific BaF3 cell line, human FGFR1c cDNA was cloned into pMXs-IRES-Puro vector (Cell Biolabs) to generate the expression plasmid pMX-FGFR1c-IRES-Puro. Human FGFR4 sequence was re-engineered to enhance signaling by constructing chimeric cDNA encoding the extracellular region of FGFR4 fused to the intracellular region and tyrosine kinase domain of FGFR1c, and the chimeric sequence was cloned into pMX-IRES-Puro vector to generate the expression plasmid pMX-chimeric FGFR4-1c-IRES-Puro. Human KLB cDNA was cloned into pMXs-IRES-Neo vector (Cell Biolabs) to generate expression plasmid pMX-KLB-IRES-Neo. BaF3 cells were transfected with pMX-FGFR1c-IRES-Puro and pMX- FGFR4-1c chimera-IRES-Puro expression plasmids respectively by electroporation (Xcell machine, Bio-Rad, 950 μF, 370V). Cells were selected with media containing 1 μg/ml Puromycin for 10–12 days. […]
(§3) 293T HEK cells expressing KLB (or KL) or Hep3B cells were plated to 5–6 x 10^4 cells/well density in 96-well cell culture plate coated with poly-D-Lysine (Corning). […] Phosphorylated ERK1/2 (pERK) levels were subsequently recorded by EnSpire Alpha or Envision Multilabel plate reader (Perkin Elmer). […]
(§4) All cellular phosphorylation data were analyzed using 3-parameter non-linear regression curve in GraphPad Prism 7. […]

Hep3B cells = experiment: Agonist pERK AlphaLISA assay in Hep3B cells; format: cell-based, human; details: 10 min at 37° C, n = 3
Experimental: as §1, with “Following the respective cell treatments, the cells were lysed (with lysis buffer provided in the kit) for 10 min at room temperature on a shaker and the lysate was mixed with reaction mixture (consisting of reaction buffer, activation buffer, acceptor and donor beads provided in the kit).” left out, “The cell assays corresponding to 293/KLB or Hep3B cells were carried out with AlphaLISA SureFire Ultra pERK1/2 (Thr 202/Tyr204) kit (Perkin Elmer), and BaF3 cells were done using AlphaScreen pERK1/2 (Thr202/Tyr204) kit (Perkin Elmer).” left out
All cellular phosphorylation data were analyzed using 3-parameter non-linear regression curve in GraphPad Prism 7. […] Each peptide and protein analog was tested in triplicates in three independent experiments (n = 3), and normalized graphs plotted are expressed as mean ± SD unless otherwise noted.

[1] = tested on: human FGFR4-1c chimera/KLB; experiment: Agonist pERK AlphaScreen assay in BaF3 cells, FGFR4-1c chimera/KLB; format: cell-based; details: BaF3 cells co-expressing KLB and FGFR4-1c chimera; 15 min at 37° C; n = 3
Source text: as §2, §3, §4

## FGF19,A^194: FGF19 analog with single C-terminal lysine substitution to alanine
293/KLB cells
  pERK agonist activity, in words: nearly tenfold more active than FGF19
Human FGFR1/KLB
  pERK agonist activity, in words: enhanced signaling at the FGFR1/KLB complex by approximately ten-fold
Hep3B cells
  pERK agonist activity, in words: comparable
[1]
  pERK agonist activity, in words: no change in bioactivity
